In PMC3762611 (International Journal of Tryptophan Research : IJTR, 2013) one finds Ki data, which are given here for one molecule.

The target in the experiment is indoleamine 2,3-dioxygenase 1 (IDO1) (Homo sapiens, UniProt P14902). In kind it is biochemical.
Sequence of indoleamine 2,3-dioxygenase 1 (IDO1) (P14902 whole entry): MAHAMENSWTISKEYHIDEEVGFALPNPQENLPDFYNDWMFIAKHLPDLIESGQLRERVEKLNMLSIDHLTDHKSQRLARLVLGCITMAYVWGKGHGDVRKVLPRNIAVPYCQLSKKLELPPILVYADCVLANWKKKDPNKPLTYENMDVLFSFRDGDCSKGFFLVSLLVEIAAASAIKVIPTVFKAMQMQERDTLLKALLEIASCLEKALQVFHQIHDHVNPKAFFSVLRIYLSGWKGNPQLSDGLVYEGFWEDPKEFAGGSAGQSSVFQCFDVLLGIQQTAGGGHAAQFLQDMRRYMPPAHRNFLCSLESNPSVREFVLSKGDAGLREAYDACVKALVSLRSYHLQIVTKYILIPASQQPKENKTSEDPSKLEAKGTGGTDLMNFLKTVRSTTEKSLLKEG

Take `CC1(C)CCC2=C(O1)c1ccccc1C(=O)C2=O` [β-lapachone, 3,4-dihydro-2,2-dimethyl-2H-naphthol[1,2-b]pyran-5,6-dione]: the affinity corresponds to a Ki of 0.45 µM.
